Consider five compounds from patent US7183283B2, “Piperidinyl-alkylamino-pyridazinone derivatives, a process for the preparation thereof and pharmaceutical compositions containing said compounds” (Egis Gyogyszergyar RT., priority 2002, dated 2007).

The subject of one data set is rats. The experiment in a line: Elevated plus-maze (anxiolytic effect). In kind it is in vivo, rat. Particulars: male Sprague-Dawley rats, po, tested 60 min after treatment, 5 min test time. From the text:
Tests have been performed as described by Pellow and co-workers [J. Neurosci. Methods, 14, 149 (1985)]. A wooden cross, 15 cm wide with 100 cm long arms was used for the experiments. The sides and ends of two opposite arms of the cross were equipped with 40 cm high walls, however, the arms were open to the 15×15 cm central area (closed arms). The two other opposite arms were not encircled by walls (open arms).
Male Sprague-Dawley rats weighing 200–220 g were used for the experiments. The animals were placed in the central area of the equipment 60 min after treatment and the following four parameters have been observed for the 5 min test time: • time spent in the open arms, • time spent in the closed arms, • number of entries into the open arms, • number of entries into the closed arms.
The effect was expressed as percent increase in either the time (measured in sec) spent in the open arms or number of entries into the open arms. MEDs (minimal effective dose) were determined for each compound regarding the time spent in the open arms. Results are summarized in Table I. Buspiron [8-[4-[4-(2-pyrimidinyl)-1-piperazinyl]-butyl]-8-azaspiro[4,5]decan-7,9-dion] was used as reference compound.

The test system of a further data set is mice. The experiment in a line: Inhibition of spontaneous motor activity (sedative effect). The class given is in vivo. As for the experimental part:
The effect on spontaneous motor activity was investigated according to Borsy and co-workers [Borsy, J. et al, Arch. Int. Pharmacodyn., 124, 180–190 (1960)] in a ten channel Dews instrument, with 1—1 animal in each channel. Animals were placed into the instrument 60 min after per os treatment with either vehicle or test compound, and interruptions of infrared beams were recorded for 30 min. […] Diazepam [7-chloro-1,3-dihydro-1-methyl-5-phenyl-2H-1,4-benzodiazepine-2-one] was used as reference compound.

Setting [1] is: mice, per os, placed in Dews instrument 60 min after treatment, recorded for 30 min.

As for `O=C1CC2(CCCC2)CC(=O)N1CCCCN1CCN(c2ncccn2)CC1` [Buspiron, 8-[4-[4-(2-pyrimidinyl)-1-piperazinyl]-butyl]-8-azaspiro[4,5]decan-7,9-dion, reference compound], in the data set on rats, the “MED (minimal effective dose) regarding the time spent in the open arms” value (from here on “MED”) stood at 3.0 mg/kg po.
`CC(CNc1cnn(C)c(=O)c1)N1CCC(C(=O)c2ccc(F)cc2O)CC1` (stereo not shown) [Example 3, 5-{2-[4-[1-(4-fluoro-2-hydroxy-phenyl)-methanoyl]-piperidine-1-yl]-propylamino}-2-methyl-2H-pyridazine-3-one] had a melting point of 199 to 201 °C. Also, the “MED” value in the data set with rats is on record as “≦0.3 mg/kg po”. Besides, the “ID50 (50 percent inhibitory dose), spontaneous motor activity” value (from here on “ID50 (50 percent inhibitory dose)”) in the data set with mice (mouse, in vivo, 60 min) is greater than 100 mg/kg po.
`CN1C(=O)CN=C(c2ccccc2)c2cc(Cl)ccc21` [Diazepam, 7-chloro-1,3-dihydro-1-methyl-5-phenyl-2H-1,4-benzodiazepine-2-one, reference compound]: the “ID50 (50 percent inhibitory dose)” value in the data set with mice (setting [1]) came to 7.0 mg/kg po.
Turning to `Cl.Cl.O=C(c1ccc(F)cc1O)C1CCN(CCNc2cn[nH]c(=O)c2)CC1` [Example 2, 5-{2-[4-[1-(4-fluoro-2-hydroxy-phenyl)-methanoyl]-piperidine-1-yl]-ethylamino}-2H-piridazine-3-one-dihydrochloride], in the data set on rats, the “MED” value was “≦0.3 mg/kg po”. In the data set on mice (setting [1]), the “ID50 (50 percent inhibitory dose)” value is listed as greater than 100 mg/kg po.
`Cn1ncc(NCCN2CCC(C(=O)c3ccc(F)cc3O)CC2)cc1=O` [Example 1, 5-{2-[4-[1-(4-fluoro-2-hydroxy-phenyl)-methanoyl]-piperidine-1-yl]-ethylamino}-2-methyl-2H-pyridazine-3-one] showed a melting point of 200 to 202 °C. For the same compound, the “MED” value in the data set with rats is reported as “≦0.03 mg/kg po”. Moreover, the “ID50 (50 percent inhibitory dose)” value in the data set with mice (mouse, in vivo, 60 min) was greater than 100 mg/kg po.
